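Compound exposure: 48 hours, 5 concentrations, 96-well plates. The concentration for 50% growth inhibition is given as GI50.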 Calls of active or inactive are those of the source. Cut-off read from the data, not from the text of the source: active = GI50 up to about 1.1 µM and inactive = higher.
Key:
Assay in all cases: DTP human tumour cell line panel, 48 h
786-0 = test system: 786-0
A498 = test system: A498
A549 = test system: A549
ACHN = test system: ACHN
BT-549 = test system: BT-549
CAKI-1 = test system: CAKI-1
CCRF-CEM = test system: CCRF-CEM
COLO 205 = test system: COLO 205
DU-145 = test system: DU-145
EKVX = test system: EKVX
HCC 2998 = test system: HCC 2998
HCT-116 = test system: HCT-116
HCT-15 = test system: HCT-15
HL-60 = test system: HL-60
HOP-62 = test system: HOP-62
HT-29 = test system: HT-29
Hs-578T = test system: Hs-578T
IGROV-1 = test system: IGROV-1
K562 = test system: K562
KM12 = test system: KM12
LOX IMVI = test system: LOX IMVI
M14 = test system: M14
MCF7 = test system: MCF7
MDA-MB-231 = test system: MDA-MB-231
MDA-MB-435 = test system: MDA-MB-435
MDA-N = test system: MDA-N
MOLT-4 = test system: MOLT-4
Malme-3M = test system: Malme-3M
NCI-H23 = test system: NCI-H23
NCI-H460 = test system: NCI-H460
NCI-H522 = test system: NCI-H522
OVCAR-8 = test system: OVCAR-8
PC-3 = test system: PC-3
RPMI-8226 = test system: RPMI-8226
SF-268 = test system: SF-268
SF-295 = test system: SF-295
SF-539 = test system: SF-539
SK-MEL-28 = test system: SK-MEL-28
SK-MEL-5 = test system: SK-MEL-5
SK-OV-3 = test system: SK-OV-3
SN12C = test system: SN12C
SNB-75 = test system: SNB-75
SR = test system: SR
SW-620 = test system: SW-620
T47D = test system: T47D
TK-10 = test system: TK-10
UACC-257 = test system: UACC-257
UACC-62 = test system: UACC-62
HOP-92 = test system: HOP-92
NCI/ADR-RES = test system: NCI/ADR-RES
OVCAR-3 = test system: OVCAR-3
OVCAR-4 = test system: OVCAR-4
OVCAR-5 = test system: OVCAR-5
RXF 393 = test system: RXF 393
SK-MEL-2 = test system: SK-MEL-2
SNB-19 = test system: SNB-19
U-251 = test system: U-251
NCI-H226 = test system: NCI-H226
UO-31 = test system: UO-31

In the case of `COc1ccc2c(N=[N+]=[N-])c(-c3ccccc3)c(=O)oc2c1`, the GI50 (786-0) is reported as > 100 µM (inactive), the GI50 (A498) is reported as 45.9 µM (inactive) and the GI50 (A549) is reported as 48.4 µM (inactive). The GI50 (ACHN) was 41.1 µM (inactive), the GI50 (BT-549) was 31.4 µM (inactive) and the GI50 (CAKI-1) was 30.1 µM (inactive). For the same compound, the GI50 (CCRF-CEM) was 36.1 µM (inactive), the GI50 (COLO 205) was 56.8 µM (inactive) and the GI50 (DU-145) was 65.6 µM (inactive). The GI50 (EKVX) was 39.8 µM (inactive), the GI50 (HCC 2998) was 92.3 µM (inactive) and the GI50 (HCT-116) was 44.3 µM (inactive). The GI50 (HCT-15) was 56.6 µM, the GI50 (HL-60) was 22.5 µM (inactive) and the GI50 (HOP-62) was > 100 µM (inactive). The GI50 (HT-29) was 32.1 µM (inactive), the GI50 (Hs-578T) was > 100 µM (inactive) and the GI50 (IGROV-1) was > 100 µM (inactive). The GI50 (K562) was 40 µM (inactive), the GI50 (KM12) was 34.5 µM (inactive) and the GI50 (LOX IMVI) was 82.8 µM (inactive). The GI50 (M14) was 57 µM (inactive), the GI50 (MCF7) was 36.2 µM (inactive) and the GI50 (MDA-MB-231) was 87.1 µM (inactive). The GI50 (MDA-MB-435) was 45.8 µM (inactive), the GI50 (MDA-N) was 48.8 µM (inactive) and the GI50 (MOLT-4) was 21.5 µM (inactive). For the same compound, the GI50 (Malme-3M) was 33.3 µM (inactive), the GI50 (NCI-H23) was 24.5 µM (inactive) and the GI50 (NCI-H460) was 49.3 µM (inactive). For the same compound, the GI50 (NCI-H522) was 26.1 µM (inactive), the GI50 (OVCAR-8) was 77.1 µM (inactive) and the GI50 (PC-3) was 52.7 µM (inactive). The GI50 (RPMI-8226) was 20.8 µM (inactive), the GI50 (SF-268) was 78.5 µM (inactive) and the GI50 (SF-295) was 61.9 µM (inactive). For the same compound, the GI50 (SF-539) was > 100 µM (inactive), the GI50 (SK-MEL-28) was > 100 µM (inactive) and the GI50 (SK-MEL-5) was 25.5 µM (inactive). The GI50 (SK-OV-3) was 76.6 µM (inactive), the GI50 (SN12C) was 61.1 µM (inactive) and the GI50 (SNB-75) was > 100 µM (inactive). The GI50 (SR) was 22.2 µM (inactive), the GI50 (SW-620) was > 100 µM (inactive) and the GI50 (T47D) was 22.8 µM (inactive). The GI50 (TK-10) was 87.5 µM (inactive), the GI50 (UACC-257) was 29.6 µM (inactive) and the GI50 (UACC-62) was 58.6 µM (inactive).
With `CCCN1C(=O)CC(C)N(Cc2ccccc2Cl)C1=S` (configuration not stated) the GI50 (786-0) was 36.4 µM (inactive), the GI50 (A498) was 14.2 µM (inactive) and the GI50 (A549) was 35.3 µM (inactive). For the same compound, the GI50 (ACHN) was 24.5 µM (inactive), the GI50 (BT-549) was 24.4 µM (inactive) and the GI50 (CAKI-1) was 36.9 µM (inactive). The GI50 (CCRF-CEM) was 44.5 µM (inactive), the GI50 (COLO 205) was 16.9 µM (inactive) and the GI50 (DU-145) was 26.4 µM (inactive). The GI50 (EKVX) was 27.9 µM (inactive), the GI50 (HCT-116) was 24.7 µM (inactive) and the GI50 (HCT-15) was 35.2 µM. The GI50 (HL-60) was 37.4 µM (inactive), the GI50 (HOP-62) was 35.4 µM (inactive) and the GI50 (HOP-92) was 24.2 µM (inactive). The GI50 (HT-29) was 37.9 µM (inactive), the GI50 (Hs-578T) was 30.8 µM (inactive) and the GI50 (IGROV-1) was 33.4 µM (inactive). The GI50 (KM12) was 28.9 µM (inactive), the GI50 (LOX IMVI) was 22.3 µM (inactive) and the GI50 (M14) was 25.7 µM (inactive). The GI50 (MCF7) was 26.5 µM (inactive), the GI50 (MDA-MB-231) was 28.7 µM (inactive) and the GI50 (MDA-MB-435) was 23.7 µM (inactive). The GI50 (MDA-N) was 21.5 µM (inactive), the GI50 (MOLT-4) was 28.2 µM (inactive) and the GI50 (Malme-3M) was 25.4 µM (inactive). The GI50 (NCI-H23) was 23.5 µM (inactive), the GI50 (NCI-H460) was 31 µM (inactive) and the GI50 (NCI-H522) was 21.1 µM (inactive). The GI50 (NCI/ADR-RES) was 21.2 µM (inactive), the GI50 (OVCAR-3) was 26.1 µM (inactive) and the GI50 (OVCAR-4) was 43.7 µM (inactive). For the same compound, the GI50 (OVCAR-5) was 50.2 µM (inactive), the GI50 (OVCAR-8) was 27.2 µM (inactive) and the GI50 (PC-3) was 22.8 µM (inactive). The GI50 (RPMI-8226) was 24.8 µM (inactive), the GI50 (RXF 393) was 3.9 µM (inactive) and the GI50 (SF-268) was 24.4 µM (inactive). The GI50 (SF-295) was 31.9 µM (inactive), the GI50 (SF-539) was 16 µM (inactive) and the GI50 (SK-MEL-28) was 22.9 µM (inactive). The GI50 (SK-MEL-2) was 21.7 µM (inactive), the GI50 (SK-MEL-5) was 17.8 µM (inactive) and the GI50 (SK-OV-3) was 31.9 µM (inactive). The GI50 (SN12C) was 30.6 µM (inactive), the GI50 (SNB-19) was 46.1 µM (inactive) and the GI50 (SW-620) was 30.8 µM (inactive). The GI50 (T47D) was 10.6 µM (inactive), the GI50 (TK-10) was 25 µM (inactive) and the GI50 (U-251) was 24 µM (inactive). For the same compound, the GI50 (UACC-257) was 17.2 µM (inactive) and the GI50 (UACC-62) was 19.1 µM (inactive).
For `Cc1occc1C(=S)Nc1ccc(Cl)c(C(=O)OCC(C)C)c1`, the GI50 (786-0) was 16.7 µM (inactive), the GI50 (A498) was 15.9 µM (inactive) and the GI50 (A549) was 20.3 µM (inactive). For the same compound, the GI50 (ACHN) was 17.9 µM (inactive), the GI50 (BT-549) was 17.2 µM (inactive) and the GI50 (CAKI-1) was 21.5 µM (inactive). For the same compound, the GI50 (CCRF-CEM) was 26.5 µM (inactive), the GI50 (COLO 205) was 16.3 µM (inactive) and the GI50 (DU-145) was 18.3 µM (inactive). The GI50 (EKVX) was 15.6 µM (inactive), the GI50 (HCC 2998) was 18.9 µM (inactive) and the GI50 (HCT-116) was 14.4 µM (inactive). For the same compound, the GI50 (HCT-15) was 16.9 µM, the GI50 (HL-60) was 29.4 µM (inactive) and the GI50 (HOP-92) was 17.4 µM (inactive). The GI50 (HT-29) was 13.2 µM (inactive), the GI50 (Hs-578T) was 25.1 µM (inactive) and the GI50 (IGROV-1) was 18.1 µM (inactive). For the same compound, the GI50 (K562) was 12.1 µM (inactive), the GI50 (KM12) was 14.4 µM (inactive) and the GI50 (LOX IMVI) was 14.9 µM (inactive). For the same compound, the GI50 (M14) was 22.8 µM (inactive), the GI50 (MCF7) was 14.6 µM (inactive) and the GI50 (MDA-MB-231) was 16.6 µM (inactive). The GI50 (MDA-MB-435) was 16.5 µM (inactive), the GI50 (MDA-N) was 21.1 µM (inactive) and the GI50 (MOLT-4) was 11.5 µM (inactive). The GI50 (Malme-3M) was 19.3 µM (inactive), the GI50 (NCI-H226) was 15.3 µM (inactive) and the GI50 (NCI-H23) was 17.1 µM (inactive). For the same compound, the GI50 (NCI-H460) was 22.3 µM (inactive), the GI50 (NCI-H522) was 14.1 µM (inactive) and the GI50 (NCI/ADR-RES) was 12.9 µM (inactive). The GI50 (OVCAR-3) was 22.4 µM (inactive), the GI50 (OVCAR-4) was 13.3 µM (inactive) and the GI50 (OVCAR-5) was 31.8 µM (inactive). For the same compound, the GI50 (OVCAR-8) was 15.8 µM (inactive), the GI50 (PC-3) was 16.1 µM (inactive) and the GI50 (RPMI-8226) was 19.4 µM (inactive). For the same compound, the GI50 (SF-268) was 21.4 µM (inactive), the GI50 (SF-295) was 16.6 µM (inactive) and the GI50 (SF-539) was 22.3 µM (inactive). For the same compound, the GI50 (SK-MEL-28) was 16.3 µM (inactive), the GI50 (SK-MEL-2) was 19.5 µM (inactive) and the GI50 (SK-MEL-5) was 15.4 µM (inactive). For the same compound, the GI50 (SK-OV-3) was 20.9 µM (inactive), the GI50 (SN12C) was 16.8 µM (inactive) and the GI50 (SNB-19) was 17.1 µM (inactive). The GI50 (SNB-75) was 15.3 µM (inactive), the GI50 (SW-620) was 19.2 µM (inactive) and the GI50 (T47D) was 12.8 µM (inactive). The GI50 (TK-10) was 17.3 µM (inactive), the GI50 (U-251) was 17.6 µM (inactive) and the GI50 (UACC-257) was 17.9 µM (inactive). For the same compound, the GI50 (UACC-62) was 12.6 µM (inactive) and the GI50 (UO-31) was 17.7 µM (inactive).

Reference: ChEMBL document CHEMBL1201862, “PubChem BioAssay data set” (2004)
